From the NIST ThermoML archive (doi:10.1016/j.tca.2008.03.014)
Numbers after ± are expanded uncertainties.

Settings: Crystal; DTA

Normal melting temperature	Compound
790.1 ± 1 °C	[F-].[Rb+] [rubidium fluoride (RbF)]
650.00 ± 1 °C	[I-].[Rb+] [rubidium iodide (RbI)]
